Assay results taken from US10213447B2, “Preparation of acetate salt compositions of pharmaceutical agents” (The Curators of the University of Missouri, priority 2015, dated 2019).
≈ marks a conversion by molar mass, not a printed value.

Experiments:
[1] = Meng, et al.; cited from earlier work
[2] = cited from earlier work
[3] = in vivo; cited from earlier work
[4] = cited from earlier work; remark: listed apart in the source
[5] = cited from earlier work; remark: listed apart in the source
[6] = Particle size, zeta potential and polydispersity index by dynamic light scattering; type: physicochemical
Description: Fresh NPs were re-suspended by sonication (Qsonica LLC, Newtown, Conn., USA) in deionized water, or SA coated NPs were dissolved in deionized water and the particle size, the zeta potential, and polydispersity index (PDI) was measured through dynamic light scattering (Zetasizer Nano ZS, Malvern Instruments Ltd, Worcestershire, UK) at 25° C. Samples with polydispersity index (PDI)<0.05 were considered monodispersed according to the National Institute guidelines (7).

physchem = conditions: pH 7, aqueous buffer, thermodynamic from solid
Description: Sodium hydroxide was added raising the pH of the solution to 12.30. […] After the period of about 24 hours elapsed, the solution was freeze dried. The amount of DXT that dissolved into solution from each DXT composition was measured by determining the amount of DXT in the supernatant, as measured by UV spectroscopy at 230 nm after removing undissolved material by centrifugation. […] Native DXT (uncoated) dissolved into acetate buffer at the same pH was used as a control.

Structure (SMILES): C[C@H](Cn1cnc2c(N)ncnc21)OCP(=O)(O)O [TFV, tenofovir]
- TFV encapsulated in chitosan NPs (EE %) [1]: 5.83%
- log P [2]: −1.1
- Oral bioavailability [3]: 25-39%
- Solubility in water [4]: 13400 µg/mL (≈ 46700 µM)

Structure (SMILES): O=P(O)(O)OP(=O)(O)OP(=O)(O)O [Triphosphoric acid]
- pKa (fifth listed) ([5]; fifth dissociation, printed pKa): 8.5
- pKa1 ([5]; first dissociation): 1
- pKa4 ([5]; fourth dissociation): 3.7
- pKa (second listed) ([5]; second dissociation, printed pKa): 2.2
- pKa3 ([5]; third dissociation): 2.3

Structure (SMILES): CC(=O)[O-].[Na+] [pure salt, sodium acetate]
- ZP ([6]; as worded): 0-3 mV
- Zeta potential of pure salt (ev) ([6]; pure salt): −4.87 ± 0.64 ev

Structure (SMILES): CC(=O)O[C@@]12CO[C@@H]1C[C@H](O)[C@@]1(C)C(=O)[C@H](O)C3=C(C)[C@@H](OC(=O)[C@H](O)[C@@H](NC(=O)OC(C)(C)C)c4ccccc4)C[C@@](O)([C@@H](OC(=O)c4ccccc4)[C@H]21)C3(C)C [uncoated DXT, Docetaxel, reference compound]
- pKa [5]: ~10.96
- solubility (physchem): ~11.8 µg/mL (≈ 14.6 µM)
